Bounds are passed on as bounds.

In patent US20130303509A1, “NAMPT INHIBITORS” (AbbVie Inc., priority 2012, published 2013) one finds IC50 data, which are given here for 13 compounds.

The test system of this test is PC3 cells. In words: NAMPT Cell Proliferation Assay. The note with it: Homo sapiens, PC-3, 120 h, 5 days incubation, cell viability by Cell Titer Glo. The class given is cell-based. Summed up:
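Five-day CellTiter-Glo viability readout in PC3 cells grown in RPMI/10% heat-inactivated FBS. Compounds added after overnight attachment as a 10-fold dilution series, […]. Percent inhibition fitted to sigmoidal dose-response to derive IC50.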
Background: In ATP-based viability assays light output follows the ATP content of the culture.
A word on the IC50: it is the point on the concentration scale where inhibition reaches its midpoint. Lower therefore signals higher potency. `CC(C)Cn1cc(-c2cc(C(=O)N[C@@H]3CCN(c4cccnn4)C3)cs2)cn1` [Example 623, 5-[1-(2-methylpropyl)-1H-pyrazol-4-yl]-N-[(3R)-1-(pyridazin-3-yl)pyrrolidin-3-yl]thiophene-3-carboxamide] showed a half-maximal inhibitory concentration (IC50) of 6170 nM.

With `CC(C)Cn1cc(-c2cc(C(=O)N[C@@H]3CCN(c4ccnnc4)C3)cs2)cn1` [Example 624, 5-[1-(2-methylpropyl)-1H-pyrazol-4-yl]-N-[(3R)-1-(pyridazin-4-yl)pyrrolidin-3-yl]thiophene-3-carboxamide], the IC50 was above 10000 nM.

`CC(C)(C)C(=O)N1CCC(c2ccc(NC(=O)C3CCN(c4cccnn4)CC3)cc2)CC1` [Example 625, N-{4-[1-(2,2-dimethylpropanoyl)piperidin-4-yl]phenyl}-1-(pyridazin-3-yl)piperidine-4-carboxamide] gave an IC50 of 1900 nM.

Compound `O=C(Nc1ccc(C2CCN(C(=O)c3ccccc3)CC2)cc1)C1CCN(c2cccnn2)CC1` [Example 626, N-[4-(1-benzoylpiperidin-4-yl)phenyl]-1-(pyridazin-3-yl)piperidine-4-carboxamide] showed an IC50 of 5220 nM.

Compound `O=C(Nc1ccc(C2CCN(C(=O)c3ccccc3F)CC2)cc1)C1CCN(c2cccnn2)CC1` [Example 627, N-{4-[1-(2-fluorobenzoyl)piperidin-4-yl]phenyl}-1-(pyridazin-3-yl)piperidine-4-carboxamide] returned a half-maximal inhibitory concentration (IC50) of 853 nM.

On to `O=C(Nc1ccc(C2CCN(C(=O)CCC(F)(F)F)CC2)cc1)C1CCN(c2cccnn2)CC1` [Example 628, 1-(pyridazin-3-yl)-N-{4-[1-(4,4,4-trifluorobutanoyl)piperidin-4-yl]phenyl}piperidine-4-carboxamide], for which the IC50 is above 10000 nM.

In turn, `CC(C)Cn1cc(-c2cc(C(=O)N[C@H]3CCN(c4ccc(Cl)nn4)C3)cs2)cn1` [Example 629, N-[(3S)-1-(6-chloropyridazin-3-yl)pyrrolidin-3-yl]-5-[1-(2-methylpropyl)-1H-pyrazol-4-yl]thiophene-3-carboxamide] came in with an IC50 of 5010 nM.

Compound `O=C(Nc1ccc(C2CCN(C(=O)c3cncs3)CC2)cc1)[C@H]1CCN(c2cccnn2)C1` [Example 630, (3S)-1-(pyridazin-3-yl)-N-{4-[1-(1,3-thiazol-5-ylcarbonyl)piperidin-4-yl]phenyl}pyrrolidine-3-carboxamide] came in with an IC50 of 8.12 nM.

Take `Cc1ccc(C(=O)N2CCC(c3ccc(NC(=O)[C@H]4CCN(c5cccnn5)C4)cc3)CC2)cc1` [Example 631, (3S)-N-{4-[1-(4-methylbenzoyl)piperidin-4-yl]phenyl}-1-(pyridazin-3-yl)pyrrolidine-3-carboxamide]: the midpoint of inhibition, the IC50, lay at 9.58 nM.

In turn, `CC[C@H](C(=O)N1CCC(c2ccc(NC(=O)[C@H]3CCN(c4cccnn4)C3)cc2)CC1)c1ccccc1` [Example 632, (3S)-N-(4-{1-[(2S)-2-phenylbutanoyl]piperidin-4-yl}phenyl)-1-(pyridazin-3-yl)pyrrolidine-3-carboxamide] had an IC50 of 8.81 nM.

Compound `CO[C@H](C(=O)N1CCC(c2ccc(NC(=O)[C@H]3CCN(c4cccnn4)C3)cc2)CC1)c1ccccc1` [Example 633, (3S)-N-(4-{1-[(2S)-2-methoxy-2-phenylacetyl]piperidin-4-yl}phenyl)-1-(pyridazin-3-yl)pyrrolidine-3-carboxamide] registered a half-maximal inhibitory concentration (IC50) of 8.95 nM.

`CO[C@@H](C(=O)N1CCC(c2ccc(NC(=O)[C@H]3CCN(c4cccnn4)C3)cc2)CC1)c1ccccc1` [Example 634, (3S)-N-(4-{1-[(2R)-2-methoxy-2-phenylacetyl]piperidin-4-yl}phenyl)-1-(pyridazin-3-yl)pyrrolidine-3-carboxamide] showed an IC50 of 9.22 nM.

Consider `CCOCC(=O)N1CCC(c2ccc(NC(=O)[C@H]3CCN(c4cccnn4)C3)cc2)CC1` [Example 635, (3S)-N-{4-[1-(ethoxyacetyl)piperidin-4-yl]phenyl}-1-(pyridazin-3-yl)pyrrolidine-3-carboxamide], for which half-maximal inhibition (IC50) was put at 41.6 nM.
